Where a name gives a salt, the structure may show the parent alone.
Experiments:
[1] = tested on: Yohimbine-induced noradrenergic hyperarousal in Wistar rats; test: Elevated plus maze, yohimbine-induced noradrenergic hyperarousal, dose response (Example 3); format: in vivo; details: for Percent increase as referred to the Vehicle level, Entries / Percent increase as referred to the Vehicle level, Time: 60 min
Text: Background: Yohimbine is an alpha 2-adrenergic receptor antagonist reported to trigger panic attacks in healthy volunteers and to exacerbate symptoms in patients with panic disorder (Charney et al., 1992 Acta Psychiatr Scand., Vol. 86 (4): 273-282). Peripheral administration of Yohimbine causes noradrenergic mediated hyperarousal in rats as assessed by the EPM paradigm.
Rationale: The drug yohimbine is a natural product used to test a specific pathway, noradrenergic-mediated hyper-arousal. It is well established that yohimbine is an alpha2-adrenergic receptor antagonist and activates the locus coeruleus (LC) and increases noradrenergic signaling (the opposite of alpha2-adrenergic agonists like dexmedetomidine and clonidine). Increased LC activity and noradrenergic signaling makes animals anxious and agitated which can be measured by using the elevated plus maze. In the elevated plus maze, rodents were in the closed arms and explored the open arms depending on their anxiety and agitation (rats and mice normally explore their environments extensively when calm). […] This behavior is correlated to increased level of anxiety caused by noradrenergic mediated hyperarousal.
Animal groups: Rats were distributed in 9 different experimental groups with 12 […] per group as illustrated in Table 6. Each experimental group was also coded so that the experimenter became unaware of the true experimental group at the time EPM trial.
Acclimatization: Male Wistar rats (Janvier; Le Genest St Isle-France) were used for the study. They were purchased at a body weight of 150 g and reached a body weight of about 220 g at the time of use. They were group-housed (3-4 rats per cage) and maintained in a room with controlled temperature (21-22° C.) and a reversed light-dark cycle (12 h/12 h; lights on: 17:30-05:30; lights off: 05:30-17:30).
Drug preparation: All compounds/drugs were prepared in normal saline (0.9% NaCl).
Yohimbine was prepared at a solution of 2.5 mg/mL which when injected i.p. at a dosage volume of 1 mL/kg results in a dose of 2.5 mg/kg. Diazepam was prepared at a solution of 1 mg/mL which when injected i.p. at a dosage volume of 1 mL/kg results in a dose of 1 mg/kg. Latrepirdine dihydrochloride hydrate was prepared at a solution of 7.5, 2.5, 0.75 and 0.25 mg/mL which when injected i.m. at a volume of 100 μL for a rat of 250 g results in doses of 3; 1; 0.3 and 0.1 mg/kg; respectively. Latrepirdine dihydrochloride hydrate was also prepared at […] which when administrated i.p. at a dosage volume of 1 mL/kg results in a dose of 3 mg/kg.
Experimental procedure: The rats were randomly assigned to one of the different experimental groups. Each animal was identified by its group name, cage number, series (day) of experiment, and a number (from 1 to 9) written with permanent ink on its tail. They were handled by an experimenter for about 3 min each day during 1 week prior to the day of EPM trial. The apparatus was a PVC maze covered with Plexiglas and subdivided into four equal exploratory arms (40×10 cm), which were all interconnected by a small platform (10×10 cm). The apparatus was placed 65 cm above the floor. Two arms were opened, and two others were closed with wall (high: 10 cm). After compound administration, rat was placed on the platform opposite a closed arm. The number of entries and the time spent in each arm were recorded during a 5 min period. The animal was considered as entered in an arm when it placed its four paws in the arm. The apparatus was cleaned between each animal using alcohol (70%). Urine and feces were removed from the maze. During the trials, animal handling and the visibility of the operator were minimized as much as possible.
Statistical analysis: Analysis of variance (ANOVA) was performed on the result data. Fisher's PLSD was used for pairwise comparisons and p value≤0.05 were considered significant. […]

[2] = tested on: motor activity (locomotion) and sedation behavior of male Swiss albino mice; test: Open field test, motor activity (locomotion) and sedation (Example 7); format: in vivo
Description: Rationale: The spontaneous locomotor activity in terms of total distance traveled is measured in open field test. Comparatively lower distance traveled would indicate either less motor activity or sedation.
Animal groups: Swiss albino male mice (6-7 weeks old; 25-40 g weight) were distributed in 10 different experimental groups with 12 […] per group as illustrated in Table
Study drugs: The test substances (Dexmedetomidine hydrochloride and latrepirdine dihydrochloride hydrate) were dissolved in 0.9% normal saline which served as the vehicle.
Study design and dosing: Mice were brought to the laboratory and allowed to acclimatize to the environment for at least 7 days. The open field test was done in lighting conditions of 40 lux light. The mice were dosed as per the grouping in Table 10. After a post dose interval of 60 minutes, 4 mice from a group were placed in the open field and the movement was tracked for a period of 30 minutes. Once the trial was over the mice were removed from the open field and the arena was cleaned. Following this, next set of 4 mice were placed in the arena and tracked.
Statistical analysis: The distance travelled for a period of 30 minutes was analyzed in bins of 5 minutes and was compared with that of the vehicle group using one-way ANOVA followed by Dunnett's test. All statistical analyses were performed using Graph pad prism software package (Version 7 or Higher) and p value below 0.05 was considered as significant.

[3] = 0.1 mg/kg, i.m., yohimbine hydrochloride 2.5 mg/kg i.p.
[4] = 0.3 mg/kg, i.m., yohimbine hydrochloride 2.5 mg/kg i.p.
[5] = 1 mg/kg, i.m., yohimbine hydrochloride 2.5 mg/kg i.p.
[6] = 3 mg/kg, i.m., saline (yohimbine-free rats)
[7] = 3 mg/kg, i.m., yohimbine hydrochloride 2.5 mg/kg i.p.
[8] = 3 mg/kg, i.p., yohimbine hydrochloride 2.5 mg/kg i.p.

Row | Compound | Percent increase as referred to the Vehicle level, Entries [1, 3] | Percent increase as referred to the Vehicle level, Time [1, 3] | Percent increase as referred to the Vehicle level, Entries [1, 4] | Percent increase as referred to the Vehicle level, Time [1, 4] | Percent increase as referred to the Vehicle level, Entries [1, 5] | Percent increase as referred to the Vehicle level, Time [1, 5] | EPM performance of saline-treated rats (yohimbine-free) ([1]; 3 mg/kg i.m.) | EPM performance, i.m. compared with i.p. route ([1]; 3 mg/kg, yohimbine rats) | Percent increase as referred to the Vehicle level, Entries [1, 6] | Percent increase as referred to the Vehicle level, Time [1, 6] | Percent increase as referred to the Vehicle level, Entries [1, 7] | Percent increase as referred to the Vehicle level, Time [1, 7] | Percent increase as referred to the Vehicle level, Entries [1, 8] | Percent increase as referred to the Vehicle level, Time [1, 8] | noradrenergic mediated hyperarousal in yohimbine administered rats ([1]; 1 and 3 mg/kg) | number of visits to and time spent into the open arms, significance ([1]; i.m., yohimbine administered rats, 0.1-3 mg/kg) | distance traveled ([2]; 1 mg/kg, 3 mg/kg and 10 mg/kg, i.p.) | locomotion and sedation ([2]; latrepirdine, open field test)
1 | Cc1ccc2c(c1)c1c(n2CCc2ccc(C)nc2)CCN(C)C1 [latrepirdine dihydrochloride hydrate] | 21% | 21% | 11% | 73% | 106% | 274% | did not significantly modify the EPM performance | comparable to that of specimens treated intraperitoneally | 167% | 377% | 172% | 392% | 183% | 486% | Conclusion: The results showed that latrepirdine dihydrochloride hydrate (at 1 and 3 mg/kg) significantly reduced noradrenergic mediated hyperarousal in yohimbine administered rats in dose-dependent manner (see table 7 and FIGS. 5 and 6). | effect was significant at the doses of 1 and 3 mg/kg | did not show any significant reduction in distance traveled | –
2 | Cc1ccc2c(c1)c1c(n2CCc2ccc(C)nc2)CCN(C)C1 [latrepirdine, 2,8-dimethyl-5-[2-(6-methylpyridin-3-yl)ethyl]-3,4-dihydro-1H-pyrido[4,3-b]indole] | – | – | – | – | – | – | – | – | – | – | – | – | – | – | – | – | – | did not cause any reduction in locomotion nor caused sedation

Source: patent US20260325500A1, “METHODS AND COMPOSITIONS FOR TREATING ACUTE STRESS DISORDER” (BioXcel Therapeutics, Inc., priority 2022, published 2026)
